Paper PMC5444442, “Flagellin peptide flg22 gains access to long-distance trafficking in Arabidopsis via its receptor, FLS2” (Journal of Experimental Botany, 2017)
Peptide text beside a SMILES is read from it.

Legend:
Arabidopsis plants = assay: Long-distance transport after surface application of fluorescent peptide; type: in vivo, Arabidopsis thaliana; conditions: 1 d
Procedure: We applied 10–20 μl of 5 μM TAMRA–flg22 (without or with inhibitors: 50 μM MG132 or 50 mM BDM) to a filter paper disc placed on the adaxial side of one leaf of in vitro-grown Arabidopsis plants and distal tissues were imaged by confocal microscopy after 1 d. For experiments with mixed peptides, 5 μM TAMRA–flg22 + 10 μM FAM–scrambled peptides were used.
[^14C]sucrose radioactivity was quantified in a scintillation counter.

Arabidopsis leaf discs = assay: Subcellular localization, uptake and accumulation of flg22 in leaf discs; type: cell-based, Arabidopsis thaliana; conditions: Col leaf discs
Procedure: Leaf discs were floated (abaxial side down) on 1–5 μM TAMRA–flg22 or 5–10 μM FAM–flg22 solution (in water) at room temperature for the indicated time (lower concentrations were used for overnight treatments). Inhibitors that affect endocytosis, MG132 (Sigma-Aldrich, 50 μM) or 2,3-butanedione monoxime (BDM; Sigma-Aldrich, 50 mM) were added at the same time as the peptides. FM4-64 (Invitrogen, 6–8 μM) or 2′,7′-bis-(2-carboxyethyl)-5-(and-6)-carboxyfluorescein (BCECF)-AM (cleaved by an endogenous plant esterase to BCECF, Invitrogen, 20–40 μM) mixed with peptide solution was vacuum infiltrated for 2 min into leaf discs ([Kang et al., 2014]) prior to incubation (floating on peptide/dye solution) for the indicated time. In some experiments FAM–Y-flg22 was used with results similar to FAM–flg22.
For experiments with mixed peptides, leaf discs were floated for the indicated time on 2 μM FAM–flg22, FAM–scrambled peptide or fluorescein mixed with 1 μM TAMRA–flg22. In all experiments, leaf discs were washed after treatment by gently shaking for several minutes in water and the abaxial side was imaged by confocal or epifluorescence microscopy (see ‘Microscopy’). Fluorescence intensity profiles were generated with ImageJ, as in [Spallek et al., (2013)] and [Bozkurt et al. (2015)] (see ‘Data analysis’).
Confocal images were obtained using a Zeiss LSM710 laser-scanning confocal microscope (Zeiss, Germany) as described in [Kang et al. (2014)]. Fluorescence was visualized as follows: GFP/FAM/fluorescein/BCECF excitation (ex) 488 nm/emission (em) 495–545 nm; TAMRA ex 561 nm/em 566–620 nm; FM4-64: ex 561 nm/em 686–758 nm. Green and red fluorescence was acquired for the same field using a sequential acquisition mode.
Fluorescence intensity profiles were generated with ImageJ (http://rsb.info.nih.gov/ij, last accessed 6 April 2017) using RGB Profiler and Color Profiler. Fluorescent puncta were manually counted in 20 μm × 20 μm confocal image areas as in [Irani et al. (2012)] and [Chaparro-Garcia et al., (2015)] and shown as a fraction ([Irani et al., 2012]; [Choi et al., 2013]). […]

FLS2 = target: T1, FLS2 (Arabidopsis thaliana, UniProt Q9FL28); assay: ROS assay in leaf discs; type: cell-based; conditions: flg22-induced ROS; Supplementary Fig. S1B
T1 construct: treating Col and fls2 leaf discs (prefloated on water overnight) with 1 μM peptide and measuring ROS induction; from tissue; host or cells: Arabidopsis thaliana Col leaf discs (fls2 mutant as negative control)
T1 sequence (Q9FL28 24-1173): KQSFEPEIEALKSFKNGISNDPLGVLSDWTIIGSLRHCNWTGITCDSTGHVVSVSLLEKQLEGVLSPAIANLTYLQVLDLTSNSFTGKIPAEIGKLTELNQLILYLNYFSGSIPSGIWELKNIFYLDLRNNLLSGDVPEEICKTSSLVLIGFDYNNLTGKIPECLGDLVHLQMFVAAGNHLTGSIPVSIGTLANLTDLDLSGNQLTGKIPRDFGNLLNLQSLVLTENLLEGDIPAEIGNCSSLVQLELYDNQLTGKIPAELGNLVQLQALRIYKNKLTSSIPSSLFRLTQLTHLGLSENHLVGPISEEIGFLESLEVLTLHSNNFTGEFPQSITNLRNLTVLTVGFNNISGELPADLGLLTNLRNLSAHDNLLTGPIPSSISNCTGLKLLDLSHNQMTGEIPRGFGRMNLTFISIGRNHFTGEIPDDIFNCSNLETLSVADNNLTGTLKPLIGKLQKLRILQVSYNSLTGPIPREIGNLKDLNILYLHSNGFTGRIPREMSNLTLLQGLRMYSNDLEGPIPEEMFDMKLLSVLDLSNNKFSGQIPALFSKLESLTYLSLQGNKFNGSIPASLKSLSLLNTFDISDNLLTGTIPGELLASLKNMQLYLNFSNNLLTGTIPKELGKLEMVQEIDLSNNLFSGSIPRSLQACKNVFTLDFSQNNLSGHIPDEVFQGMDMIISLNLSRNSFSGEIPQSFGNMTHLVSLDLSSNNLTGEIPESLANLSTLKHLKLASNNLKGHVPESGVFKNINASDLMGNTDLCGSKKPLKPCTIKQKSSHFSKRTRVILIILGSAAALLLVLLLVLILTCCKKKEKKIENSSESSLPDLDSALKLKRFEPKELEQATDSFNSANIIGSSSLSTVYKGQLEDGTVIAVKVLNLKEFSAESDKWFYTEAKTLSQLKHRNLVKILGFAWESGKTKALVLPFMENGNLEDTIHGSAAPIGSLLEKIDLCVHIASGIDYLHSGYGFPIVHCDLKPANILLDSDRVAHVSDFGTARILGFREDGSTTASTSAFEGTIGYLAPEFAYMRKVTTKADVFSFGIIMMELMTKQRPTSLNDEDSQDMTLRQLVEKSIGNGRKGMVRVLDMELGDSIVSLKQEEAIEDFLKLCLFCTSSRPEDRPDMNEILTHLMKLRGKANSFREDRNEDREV
T1 sequence (Q94F62 26-615 partner): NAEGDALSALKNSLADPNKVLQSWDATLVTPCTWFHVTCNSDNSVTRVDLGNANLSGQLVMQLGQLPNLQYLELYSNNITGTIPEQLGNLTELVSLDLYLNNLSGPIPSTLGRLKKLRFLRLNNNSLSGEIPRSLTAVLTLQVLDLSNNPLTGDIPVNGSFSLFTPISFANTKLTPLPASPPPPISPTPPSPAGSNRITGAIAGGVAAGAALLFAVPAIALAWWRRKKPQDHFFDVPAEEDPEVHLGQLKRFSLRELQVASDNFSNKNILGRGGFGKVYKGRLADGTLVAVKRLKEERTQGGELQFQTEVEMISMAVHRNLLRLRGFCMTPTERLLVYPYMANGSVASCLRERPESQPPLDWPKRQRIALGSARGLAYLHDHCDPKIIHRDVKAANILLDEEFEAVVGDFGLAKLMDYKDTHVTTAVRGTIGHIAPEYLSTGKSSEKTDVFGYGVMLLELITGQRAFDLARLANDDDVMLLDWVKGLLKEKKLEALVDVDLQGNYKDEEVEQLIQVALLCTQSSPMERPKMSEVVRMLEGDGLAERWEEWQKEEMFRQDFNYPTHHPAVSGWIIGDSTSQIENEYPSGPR
Procedure: Bioactivity was verified for each batch of peptides by treating Col and fls2 leaf discs (prefloated on water overnight) with 1 μM peptide and measuring ROS induction as described in ([Tateda et al., 2014]).

Arabidopsis FLS2 = conditions: ref Bauer et al., 2001; cited from earlier work
Excerpt: The fate of flg22 inside plant cells is similar to that of Potato mop-top and Cauliflower mosaic virus movement proteins, which are endocytosed and delivered to pre-vacuoles/late endosomal structures ([Haupt et al., 2005]; [Carluccio et al., 2014]). Endosomal trafficking of the movement proteins is essential for the spread of viruses to distal tissues, as is endocytosis of flg22 for efficient peptide movement to systemic tissue, although ...

Structure (SMILES)	effect of inhibitor on long-distance movement of TAMRA–flg22 (Arabidopsis plants; Col, 5 μM TAMRA–flg22 with 50 μM MG132 or 50 mM BDM on filter paper disc)	effect of inhibitor on initial binding/uptake of TAMRA–flg22 (Arabidopsis leaf discs; 5 μM TAMRA–flg22 with 50 μM MG132 or 50 mM BDM added simultaneously, 1–2 h)	effect of inhibitor on overnight accumulation of TAMRA–flg22 in vacuoles (Arabidopsis leaf discs; 1–2 μM TAMRA–flg22 with 50 μM MG132 or 50 mM BDM, overnight)	effect of endocytosis inhibitor on defense activation measured by ROS production (FLS2)	amount detected in distal organs (Arabidopsis plants; fls2 and bak1 mutants versus Col, 5 μM on filter paper disc, confocal, P<0.0002, n≥7)	reversibility of binding to microsomal membranes (Arabidopsis FLS2)
CC(=O)C(C)=NO [BDM, 2,3-butanedione monoxime, reference compound]	prevented	did not prevent initial peptide binding/uptake	did not accumulate in vacuoles	impaired defense activation		
CC[C@H](C)[C@H](NC(=O)[C@H](CCC(N)=O)NC(=O)[C@H](CC(C)C)NC(=O)CNC(=O)[C@H](C)NC(=O)[C@H](C)NC(=O)[C@H](CC(=O)O)NC(=O)[C@H](CC(=O)O)NC(=O)[C@H](CCCCN)NC(=O)[C@H](C)NC(=O)[C@H](CO)NC(=O)[C@H](CC(N)=O)NC(=O)[C@@H](NC(=O)[C@H](CCCNC(=N)N)NC(=O)[C@H](CO)NC(=O)CNC(=O)[C@@H](NC(=O)[C@H](CO)NC(=O)[C@H](CC(C)C)NC(=O)[C@H](CCCNC(=N)N)NC(=O)[C@@H](N)CCC(N)=O)[C@@H](C)O)[C@@H](C)CC)C(=O)N[C@@H](C)C(=O)O [flg22] (H-QRLSTGSRINSAKDDAAGLQIA-OH)					significantly less	reversible
